Source: paper PMC4389257, “Structural basis for full-spectrum inhibition of translational functions on a tRNA synthetase” (Nature Communications, 2015)

Molecular target: T1, human threonyl-tRNA synthetase (ThrRS) (Homo sapiens, UniProt P26639)
T1 construct: gene TARS1
T1 sequence (P26639 322-723): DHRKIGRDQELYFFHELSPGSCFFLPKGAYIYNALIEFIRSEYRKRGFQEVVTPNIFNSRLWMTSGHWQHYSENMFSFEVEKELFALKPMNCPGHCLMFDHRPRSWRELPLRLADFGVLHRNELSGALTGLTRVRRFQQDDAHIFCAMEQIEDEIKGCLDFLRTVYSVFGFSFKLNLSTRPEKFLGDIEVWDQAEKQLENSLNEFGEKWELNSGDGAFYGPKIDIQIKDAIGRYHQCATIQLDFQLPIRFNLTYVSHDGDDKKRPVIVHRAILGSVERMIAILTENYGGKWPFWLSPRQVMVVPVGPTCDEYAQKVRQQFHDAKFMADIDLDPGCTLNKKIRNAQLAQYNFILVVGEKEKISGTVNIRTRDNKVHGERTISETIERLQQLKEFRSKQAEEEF
Test: X-ray co-crystal structure ([…] Å); aminoacylation assay Ki
Format: biochemical

Work on `C[C@@H]1C[C@H](C)C[C@H](C)[C@@H](O)CC(=O)O[C@H]([C@@H]2CCC[C@H]2C(=O)O)C/C=C/C=C(/C#N)[C@H](O)[C@@H](C)C1` [BN, Borrelidin] yielded a Ki of ~7 nM.
